In patent US9695155B2, “Herbicidal substituted pyrimidinyloxy benzene compounds” (E. I. DU PONT DE NEMOURS AND COMPANY, priority 2013, dated 2017):

Assays:
waterhemp = assay: Test E preemergence; assay type: in vivo, Amaranthus rudis; settings: for Waterhemp plant response rating: scale 0 to 100 (0 no effect, 100 complete control); for Plant response rating, Waterhemp: scale 0 to 100, 0 no effect, 100 complete control
In short: (§1)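 Response was scored visually on a 0-100 scale (100 = complete control) versus controls after 14 to 21 days in the greenhouse. Test chemicals, formulated with surfactant in a non-phytotoxic solvent mixture, had been applied preemergence to seeds in silt loam soil or postemergence to 1- to 4-leaf plants in potting medium.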

velvetleaf = assay: Test E preemergence; assay type: in vivo, Abutilon theophrasti; settings: for Velvetleaf plant response rating: scale 0 to 100 (0 no effect, 100 complete control); for Plant response rating, Velvetleaf: scale 0 to 100, 0 no effect, 100 complete control
In short: as §1

fall panicum = assay: Test E preemergence; assay type: in vivo, Panicum dichotomiflorum; settings: for Panicum, Fall plant response rating: scale 0 to 100 (0 no effect, 100 complete control); for Plant response rating, Panicum, Fall: scale 0 to 100, 0 no effect, 100 complete control
In short: as §1

nightshade = assay: Test E preemergence; assay type: in vivo, Solanum ptycanthum; settings: for Nightshade plant response rating: scale 0 to 100 (0 no effect, 100 complete control); for Plant response rating, Nightshade: scale 0 to 100, 0 no effect, 100 complete control
In short: as §1

giant foxtail = assay: Test E preemergence; assay type: in vivo, Setaria faberii; settings: for Foxtail, Giant plant response rating: scale 0 to 100 (0 no effect, 100 complete control); for Plant response rating, Foxtail, Giant: scale 0 to 100, 0 no effect, 100 complete control
In short: as §1

corn = assay: Test E preemergence; assay type: in vivo, Zea mays; settings: for Corn plant response rating: scale 0 to 100 (0 no effect, 100 complete control); for Plant response rating, Corn: scale 0 to 100, 0 no effect, 100 complete control
In short: as §1

field bindweed = assay: Test E preemergence; assay type: in vivo, Convolvulus arvensis; settings: for Field Bindweed plant response rating: scale 0 to 100 (0 no effect, 100 complete control); for Plant response rating, Field Bindweed: scale 0 to 100, 0 no effect, 100 complete control
In short: as §1

barnyardgrass = assay: Test E preemergence; assay type: in vivo, Echinochloa crus-galli; settings: for Barnyardgrass plant response rating: scale 0 to 100 (0 no effect, 100 complete control); for Plant response rating, Barnyardgrass: scale 0 to 100, 0 no effect, 100 complete control
In short: as §1

large (Lg) crabgrass = assay: Test E preemergence; assay type: in vivo, Digitaria sanguinalis; settings: for Crabgrass, Large plant response rating: scale 0 to 100 (0 no effect, 100 complete control); for Plant response rating, Crabgrass, Large: scale 0 to 100, 0 no effect, 100 complete control
In short: as §1

soybean = assay: Test E preemergence; assay type: in vivo, Glycine max; settings: for Soybean plant response rating: scale 0 to 100 (0 no effect, 100 complete control); for Plant response rating, Soybean: scale 0 to 100, 0 no effect, 100 complete control
In short: as §1

galium = assay: Test A postemergence; assay type: in vivo, Galium aparine; settings: 0 to 100 scale where 0 is no effect and 100 is complete control
In short: (§2)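 Visual injury scored 0–100 (100 = complete control) against untreated controls about 10 days after treatment in a greenhouse. Test chemicals, formulated with surfactant in non-phytotoxic solvent, were sprayed on soil preemergence or on 2-10 cm, one- to two-leaf plants postemergence.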

kochia = assay: Test A preemergence; assay type: in vivo, Kochia scoparia
In short: as §2

ragweed = assay: Test A postemergence; assay type: in vivo, Ambrosia elatior; settings: 0 to 100 scale where 0 is no effect and 100 is complete control
In short: as §2

## N#Cc1cccc(Oc2ncc(F)cn2)c1-n1cc(Cl)cn1 [Compound 73]
waterhemp; 16 g ai/ha
  Waterhemp plant response rating: 65
waterhemp; 31 g ai/ha
  Waterhemp plant response rating: 100
waterhemp; 62 g ai/ha
  Waterhemp plant response rating: 100
waterhemp; 125 g ai/ha
  Plant response rating, Waterhemp: 100
waterhemp; 250 g ai/ha
  Plant response rating, Waterhemp: 100
velvetleaf; 16 g ai/ha
  Velvetleaf plant response rating: 0
velvetleaf; 31 g ai/ha
  Velvetleaf plant response rating: 20
velvetleaf; 62 g ai/ha
  Velvetleaf plant response rating: 60
velvetleaf; 125 g ai/ha
  Plant response rating, Velvetleaf: 70
velvetleaf; 250 g ai/ha
  Plant response rating, Velvetleaf: 95
Fall panicum; 16 g ai/ha
  Panicum, Fall plant response rating: 0
Fall panicum; 31 g ai/ha
  Panicum, Fall plant response rating: 40
Fall panicum; 62 g ai/ha
  Panicum, Fall plant response rating: 98
Fall panicum; 125 g ai/ha
  Plant response rating, Panicum, Fall: 98
Fall panicum; 250 g ai/ha
  Plant response rating, Panicum, Fall: 100
nightshade; 16 g ai/ha
  Nightshade plant response rating: 65
nightshade; 31 g ai/ha
  Nightshade plant response rating: 80
nightshade; 62 g ai/ha
  Nightshade plant response rating: 90
nightshade; 125 g ai/ha
  Plant response rating, Nightshade: 98
nightshade; 250 g ai/ha
  Plant response rating, Nightshade: 100
Giant foxtail; 16 g ai/ha
  Foxtail, Giant plant response rating: 0
Giant foxtail; 31 g ai/ha
  Foxtail, Giant plant response rating: 20
Giant foxtail; 62 g ai/ha
  Foxtail, Giant plant response rating: 50
Giant foxtail; 125 g ai/ha
  Plant response rating, Foxtail, Giant: 95
Giant foxtail; 250 g ai/ha
  Plant response rating, Foxtail, Giant: 100
corn; 16 g ai/ha
  Corn plant response rating: 0
corn; 31 g ai/ha
  Corn plant response rating: 0
corn; 62 g ai/ha
  Corn plant response rating: 0
corn; 125 g ai/ha
  Plant response rating, Corn: 0
corn; 250 g ai/ha
  Plant response rating, Corn: 5
Field bindweed; 16 g ai/ha
  Field Bindweed plant response rating: 0
Field bindweed; 31 g ai/ha
  Field Bindweed plant response rating: 15
Field bindweed; 62 g ai/ha
  Field Bindweed plant response rating: 50
Field bindweed; 125 g ai/ha
  Plant response rating, Field Bindweed: 75
Field bindweed; 250 g ai/ha
  Plant response rating, Field Bindweed: 85
barnyardgrass; 16 g ai/ha, preemergence
  Barnyardgrass plant response rating: 0
barnyardgrass; 31 g ai/ha, preemergence
  Barnyardgrass plant response rating: 0
barnyardgrass; Preemergence, 62 g ai/ha
  Plant response rating, Barnyardgrass: 0
barnyardgrass; preemergence, 125 g ai/ha
  Plant response rating, Barnyardgrass: 20
barnyardgrass; preemergence, 250 g ai/ha
  Plant response rating, Barnyardgrass: 75
Large (Lg) crabgrass; 16 g ai/ha
  Crabgrass, Large plant response rating: 0
Large (Lg) crabgrass; 31 g ai/ha
  Crabgrass, Large plant response rating: 30
Large (Lg) crabgrass; 62 g ai/ha
  Crabgrass, Large plant response rating: 100
Large (Lg) crabgrass; 125 g ai/ha
  Plant response rating, Crabgrass, Large: 100
Large (Lg) crabgrass; 250 g ai/ha
  Plant response rating, Crabgrass, Large: 100
soybean; 16 g ai/ha
  Soybean plant response rating: 15
soybean; 31 g ai/ha
  Soybean plant response rating: 25
soybean; 62 g ai/ha
  Soybean plant response rating: 25
soybean; 125 g ai/ha
  Plant response rating, Soybean: 70
soybean; 250 g ai/ha
  Plant response rating, Soybean: 80

## N#Cc1cccc(Oc2ncc(F)cn2)c1-n1cc(I)cn1 [Compound 86]
waterhemp; 16 g ai/ha
  Waterhemp plant response rating: 0
waterhemp; 31 g ai/ha
  Waterhemp plant response rating: 70
waterhemp; 62 g ai/ha
  Waterhemp plant response rating: 100
waterhemp; 125 g ai/ha
  Plant response rating, Waterhemp: 100
velvetleaf; 16 g ai/ha
  Velvetleaf plant response rating: 0
velvetleaf; 31 g ai/ha
  Velvetleaf plant response rating: 0
velvetleaf; 62 g ai/ha
  Velvetleaf plant response rating: 50
velvetleaf; 125 g ai/ha
  Plant response rating, Velvetleaf: 80
galium; 125 g ai/ha
  Plant response rating, Galium: 100
galium; 500 g ai/ha
  Plant response rating, Galium: 100
Fall panicum; 16 g ai/ha
  Panicum, Fall plant response rating: 0
Fall panicum; 31 g ai/ha
  Panicum, Fall plant response rating: 35
Fall panicum; 62 g ai/ha
  Panicum, Fall plant response rating: 90
Fall panicum; 125 g ai/ha
  Plant response rating, Panicum, Fall: 100
nightshade; 16 g ai/ha
  Nightshade plant response rating: 0
nightshade; 31 g ai/ha
  Nightshade plant response rating: 0
nightshade; 62 g ai/ha
  Nightshade plant response rating: 0
nightshade; 125 g ai/ha
  Plant response rating, Nightshade: 98
kochia; 125 g ai/ha, 0 to 100 scale where 0 is no effect and 100 is complete control
  Plant response rating, Kochia: 100
kochia; 500 g ai/ha, 0 to 100 scale, 0 no effect, 100 complete control, approx. 10 days
  Kochia plant response rating: 100
Giant foxtail; 16 g ai/ha
  Foxtail, Giant plant response rating: 0
Giant foxtail; 31 g ai/ha
  Foxtail, Giant plant response rating: 15
Giant foxtail; 62 g ai/ha
  Foxtail, Giant plant response rating: 30
Giant foxtail; 125 g ai/ha
  Plant response rating, Foxtail, Giant: 100
corn; 16 g ai/ha
  Corn plant response rating: 0
corn; 31 g ai/ha
  Corn plant response rating: 0
corn; 62 g ai/ha
  Corn plant response rating: 0
corn; 125 g ai/ha
  Plant response rating, Corn: 5
Field bindweed; 16 g ai/ha
  Field Bindweed plant response rating: 0
Field bindweed; 31 g ai/ha
  Field Bindweed plant response rating: 10
Field bindweed; 62 g ai/ha
  Field Bindweed plant response rating: 20
Field bindweed; 125 g ai/ha
  Plant response rating, Field Bindweed: 90
barnyardgrass; 16 g ai/ha, preemergence
  Barnyardgrass plant response rating: 0
barnyardgrass; 31 g ai/ha, preemergence
  Barnyardgrass plant response rating: 0
barnyardgrass; Preemergence, 62 g ai/ha
  Plant response rating, Barnyardgrass: 0
barnyardgrass; preemergence, 125 g ai/ha
  Plant response rating, Barnyardgrass: 30
Large (Lg) crabgrass; 16 g ai/ha
  Crabgrass, Large plant response rating: 0
Large (Lg) crabgrass; 31 g ai/ha
  Crabgrass, Large plant response rating: 0
Large (Lg) crabgrass; 62 g ai/ha
  Crabgrass, Large plant response rating: 95
Large (Lg) crabgrass; 125 g ai/ha
  Plant response rating, Crabgrass, Large: 98
ragweed; 125 g ai/ha
  Plant response rating, Ragweed: 90
ragweed; 500 g ai/ha
  Plant response rating, Ragweed: 100
soybean; 16 g ai/ha
  Soybean plant response rating: 0
soybean; 31 g ai/ha
  Soybean plant response rating: 0
soybean; 62 g ai/ha
  Soybean plant response rating: 35
soybean; 125 g ai/ha
  Plant response rating, Soybean: 60

## N#Cc1cnn(-c2c(C#N)cccc2Oc2ncc(F)cn2)c1 [Compound 111]
waterhemp; 16 g ai/ha
  Waterhemp plant response rating: 0
waterhemp; 31 g ai/ha
  Waterhemp plant response rating: 65
waterhemp; 62 g ai/ha
  Waterhemp plant response rating: 80
waterhemp; 125 g ai/ha
  Plant response rating, Waterhemp: 100
velvetleaf; 16 g ai/ha
  Velvetleaf plant response rating: 5
velvetleaf; 31 g ai/ha
  Velvetleaf plant response rating: 10
velvetleaf; 62 g ai/ha
  Velvetleaf plant response rating: 60
velvetleaf; 125 g ai/ha
  Plant response rating, Velvetleaf: 75
Fall panicum; 16 g ai/ha
  Panicum, Fall plant response rating: 0
Fall panicum; 31 g ai/ha
  Panicum, Fall plant response rating: 5
Fall panicum; 62 g ai/ha
  Panicum, Fall plant response rating: 80
Fall panicum; 125 g ai/ha
  Plant response rating, Panicum, Fall: 100
nightshade; 16 g ai/ha
  Nightshade plant response rating: 65
nightshade; 31 g ai/ha
  Nightshade plant response rating: 50
nightshade; 62 g ai/ha
  Nightshade plant response rating: 80
nightshade; 125 g ai/ha
  Plant response rating, Nightshade: 95
Giant foxtail; 16 g ai/ha
  Foxtail, Giant plant response rating: 0
Giant foxtail; 31 g ai/ha
  Foxtail, Giant plant response rating: 0
Giant foxtail; 62 g ai/ha
  Foxtail, Giant plant response rating: 70
Giant foxtail; 125 g ai/ha
  Plant response rating, Foxtail, Giant: 100
corn; 16 g ai/ha
  Corn plant response rating: 0
corn; 31 g ai/ha
  Corn plant response rating: 0
corn; 62 g ai/ha
  Corn plant response rating: 0
corn; 125 g ai/ha
  Plant response rating, Corn: 15
Field bindweed; 16 g ai/ha
  Field Bindweed plant response rating: 15
Field bindweed; 31 g ai/ha
  Field Bindweed plant response rating: 15
Field bindweed; 62 g ai/ha
  Field Bindweed plant response rating: 60
Field bindweed; 125 g ai/ha
  Plant response rating, Field Bindweed: 80
barnyardgrass; 16 g ai/ha, preemergence
  Barnyardgrass plant response rating: 0
barnyardgrass; 31 g ai/ha, preemergence
  Barnyardgrass plant response rating: 0
barnyardgrass; Preemergence, 62 g ai/ha
  Plant response rating, Barnyardgrass: 0
barnyardgrass; preemergence, 125 g ai/ha
  Plant response rating, Barnyardgrass: 35
Large (Lg) crabgrass; 16 g ai/ha
  Crabgrass, Large plant response rating: 15
Large (Lg) crabgrass; 31 g ai/ha
  Crabgrass, Large plant response rating: 35
Large (Lg) crabgrass; 62 g ai/ha
  Crabgrass, Large plant response rating: 90
Large (Lg) crabgrass; 125 g ai/ha
  Plant response rating, Crabgrass, Large: 100
soybean; 16 g ai/ha
  Soybean plant response rating: 0
soybean; 31 g ai/ha
  Soybean plant response rating: 20
soybean; 62 g ai/ha
  Soybean plant response rating: 40
soybean; 125 g ai/ha
  Plant response rating, Soybean: 70
